Data published in patent publication US20250042926A1, “THERAPEUTIC COMPOUNDS FOR HIV” (priority 2023, published 2025).

Assay type: physicochemical
Conditions: kinetic solubility from DMSO stock, 1.0% DMSO, 24-hour incubation at ambient temperature, filtrate quantified by CLND
Experimental: 2. Kinetic Solubility Analysis (CLND: Total Chemiluminescent Nitrogen Determination)
The final DMSO Concentration is 1.0% and maximum theoretical compound concentration is […] (assuming stock concentration of 10 mM). The filter plate is sealed. Following 24-hour incubation at ambient temperature (21.7-23.8° C.), the samples are vacuum filtered, and the filtrates are collected in a 96 well polypropylene plate for analysis. The collection plate is sealed for analysis.
Filtrates are injected into the nitrogen detector for quantification on Analiza's Automated Discovery Workstation. The equimolar nitrogen response of the detector is calibrated using standards which span the dynamic range of the instrument from 0.08 to 4500 μg/ml nitrogen. The filtrates are quantified with respect to this calibration curve. The calculated solubility values are corrected for background nitrogen present in the DMSO, and the media used to prepare the samples. The 1×PBS buffer (pH 7.4) is prepared by adding 50 mL of phosphate buffered saline solution 10×, PBS (Fisher Bioreagent part number BP399-500) to approximately 450 mL HPLC grade H2O. The volume of the solution is then adjusted to 500 mL for a total dilution factor of 1:10 and a final PBS concentration of 1X.

Cc1cc(CC(=O)N[C@@H](CC(=O)O)C(=O)O)c(C(C)(C)CC(=O)N(c2nn(C)c3c(-n4c([C@H](Cc5cc(F)cc(F)c5)NC(=O)Cn5nc(C(F)F)c6c5C(F)(F)[C@@H]5C[C@H]65)nc5cc(-c6cccc(C(F)(F)F)n6)ccc5c4=O)ccc(Cl)c23)S(C)(=O)=O)c(OP(=O)(O)O)c1 [Compound 5, (2-(2-(4-(N-(4-Chloro-7-(2-((S)-1-(2-((3bS,4aR)-3-(difluoromethyl)-5,5-difluoro-3b,4,4a,5-tetrahydro-1H-cyclopropa[3,4]cyclopenta[1,2-c]pyrazol-1-yl)acetamido)-2-(3,5-difluorophenyl)ethyl)-4-oxo-7-(6-(trifluoromethyl)pyridin-2-yl)quinazolin-3(411)-yl)-1-methyl-1H-indazol-3-yl)methylsulfonamido)-2-methyl-4-oxobutan-2-yl)-5-methyl-3-(phosphonooxy)phenyl)acetyl)-L-aspartic acid]
pH 2 Solubility (μM) (pH 2 (medium 0.1N HCl)): 1.1 μM
pH 7 Solubility (μM) (pH 7 (medium 1×PBS buffer pH 7.4)): 76 μM
